Results taken from ChEMBL document CHEMBL6114979, “Discovery of 3-indolylbenzoquinone derivatives with therapeutic potential for breast cancer” (Bioorg Med Chem, 2025).
Values after ≈ are worked out from the molar mass of the structure shown. Active and inactive are the calls of the source. No cut-off for these calls is given here.

Key:
[1] = Toxicity in female Balb/c mouse implanted with mouse 4T1 cells assessed as change in spleen at 25 to 35 mg/kg, ip administered once every 2 days for 14 days; format: organism-based; details: in vivo, 48 h, dose 25-35 mg/kg, time 2 day
[2] = system: MDA-MB-231; assay: Antiproliferative activity against human MDA-MB-231 cells assessed as inhibition of cell proliferation incubated for 48 hrs by CCK-8 assay; format: functional, cell-based; details: MDA-MB-231, 48 h
[3] = system: HepG2; assay: Antiproliferative activity against human HepG2 cells assessed as inhibition of cell proliferation incubated for 48 hrs by CCK-8 assay; format: functional, cell-based; details: HepG2, 48 h
[4] = Solubility of compound in 0.1 M HCL; format: physicochemical
[5] = system: MDA-MB-231; assay: Induction of apoptosis in human MDA-MB-231 cells assessed as viable cells at 1 uM incubated for 24 hrs by Annexin-V/PI staining based flow cytometric analysis (reference value: 93.37%); format: functional; details: read-out: Activity
[6] = system: MDA-MB-231; assay: Induction of cell cycle arrest in human MDA-MB-231 cells assessed as accumulation of cells at G0/G1 phase at 1 uM incubated for 24 hrs by PI staining based flow cytometric analysis (reference value: 57.31%); format: functional
[7] = system: MDA-MB-231; assay: Induction of cell cycle arrest in human MDA-MB-231 cells assessed as accumulation of cells at G2/M phase at 1 uM incubated for 24 hrs by PI staining based flow cytometric analysis (reference value: 33.98%); format: functional
[8] = system: MDA-MB-231; assay: Induction of apoptosis in human MDA-MB-231 cells assessed as increase in green fluorescence at 1 uM incubated for 24 hrs in presence of doxorubicin by fluorescence microscopic analysis; format: functional, cell-based
[9] = Toxicity in Kunming mouse assessed as change in liver lesions at 240 to 469 mg/kg, ip administered for 14 days by H and E staining based analysis; format: organism-based; details: in vivo, 336 h, dose 240-469 mg/kg, time 14 day
[10] = Toxicity in Kunming mouse assessed as lethal dose administered intraperitoneally for 14 days; details: in vivo, route ip, time 14 day
[11] = Toxicity in female Balb/c mouse implanted with mouse 4T1 cells assessed as behavioural changes at 25 to 35 mg/kg, ip administered once every 2 days; format: organism-based; details: in vivo, 48 h, dose 25-35 mg/kg, time 2 day
[12] = Toxicity in Kunming mouse assessed as change in lung morphology at 240 to 469 mg/kg, ip administered for 14 days by H and E staining based analysis; format: organism-based; details: in vivo, 336 h, dose 240-469 mg/kg, time 14 day
[13] = Toxicity in Kunming mouse assessed as infiltration of chronic inflammatory cells at 240 to 469 mg/kg, ip administered for 14 days by H and E staining based analysis; format: organism-based; details: in vivo, 336 h, dose 240-469 mg/kg, time 14 day
[14] = Nephrotoxicity in Kunming mouse assessed as change in BUN level administered intraperitoneally for 14 days (reference value: 8.65 +/- 2.66 U); format: toxicity; details: in vivo, ip, 336 h, time 14 day
[15] = Toxicity in female Balb/c mouse implanted with mouse 4T1 cells assessed as change in body weight at 25 to 35 mg/kg, ip administered once every 2 days; format: organism-based; details: in vivo, 48 h, dose 25-35 mg/kg, time 2 day
[16] = system: 4T1; assay: Antitumor activity against mouse 4T1 cells implanted in Balb/c mouse assessed as reduction in tumor size at 25 to 35 mg/kg, ip administered once every 2 days 14 days; format: functional, organism-based; details: dose 25-35 mg/kg, time 14.0 day
[17] = system: 4T1; assay: Antitumor activity against mouse 4T1 cells implanted in Balb/c mouse assessed as reduction in tumor volume at 25 to 35 mg/kg, ip administered once every 2 days for 14 days; format: functional, organism-based; details: dose 25-35 mg/kg, time 14.0 day
[18] = system: 4T1; assay: Antitumor activity against mouse 4T1 cells implanted in Balb/c mouse assessed as appearance of central tumor necrosis at 35 mg/kg, ip administered once every 2 days for 14 days relative to control; format: functional; details: time 14 day
[19] = Toxicity in female Balb/c mouse implanted with mouse 4T1 cells assessed as abnormalities in heart at 35 mg/kg, ip administered once every 2 days for 14 days; format: organism-based; details: in vivo, 336 h, time 14 day
[20] = system: 4T1; assay: Antitumor activity against mouse 4T1 cells implanted in Balb/c mouse assessed as appearance of extensive tumor cell necrosis at 25 mg/kg, ip administered once every 2 days for 14 days; format: functional, organism-based; details: time 14.0 day
[21] = Toxicity in female Balb/c mouse implanted with mouse 4T1 cells assessed as tumor metastasis to lungs at 25 mg/kg, ip administered once every 2 days for 14 days; format: organism-based; details: in vivo, 336 h, time 14 day
[22] = system: 4T1; assay: Antitumor activity against mouse 4T1 cells implanted in Balb/c mouse assessed as reduction in tumor weight at 80 mg/kg, IT administered once every 4 days in presence of olive oil; format: functional, organism-based
[23] = system: 4T1; assay: Antitumor activity against mouse 4T1 cells implanted in Balb/c mouse assessed as reduction in tumor volume at 80 mg/kg, IT administered once every 4 days in presence of olive oil; format: functional, organism-based
[24] = system: 4T1; assay: Antitumor activity against mouse 4T1 cells implanted in Balb/c mouse assessed as tumor inhibition rate at 80 mg/kg, IT administered once every 4 days in presence of olive oil relative to control; format: functional; design: scale not given: the % may be the effect or the level left
[25] = system: 4T1; assay: Antitumor activity against mouse 4T1 cells implanted in Balb/c mouse assessed as smaller tumor at 200 mg/kg, TOP administration once every 2 days for 14 days; format: functional, organism-based; details: time 14.0 day
[26] = system: 4T1; assay: Antitumor activity against mouse 4T1 cells implanted in Balb/c mouse assessed as tumor inhibition rate at 200 mg/kg, TOP administration once every 2 days for 14 days relative to control; format: functional; design: scale not given: the % may be the effect or the level left; details: time 14 day
[27] = system: 4T1; assay: Antitumor activity against mouse 4T1 cells implanted in Balb/c mouse assessed as appearance of larger intercellular gaps at 80 mg/kg, IT administered once every 4 days for 14 days in presence of olive oil by TEM analysis; format: functional, organism-based; details: time 14.0 day
[28] = system: 4T1; assay: Antitumor activity against mouse 4T1 cells implanted in Balb/c mouse assessed as appearance of nuclear membrane disruption at 80 mg/kg, IT administered once every 4 days for 14 days in presence of olive oil by TEM analysis; format: functional, organism-based; details: time 14.0 day
[29] = system: 4T1; assay: Antitumor activity against mouse 4T1 cells implanted in Balb/c mouse assessed as appearance of mitochondrial swelling at 200 mg/kg, TOP administration once every 2 days for 14 days; format: functional, organism-based; details: time 14.0 day
[30] = system: 4T1; assay: Antitumor activity against mouse 4T1 cells implanted in Balb/c mouse assessed as appearance of vacuolation at 80 mg/kg, IT administered once every 4 days for 14 days in presence of olive oil by TEM analysis; format: functional, organism-based; details: time 14.0 day
[31] = system: 4T1; assay: Antitumor activity against mouse 4T1 cells implanted in Balb/c mouse assessed as appearance of vacuolation at 200 mg/kg, TOP administration once every 2 days for 14 days; format: functional, organism-based; details: time 14.0 day
[32] = system: 4T1; assay: Antitumor activity against mouse 4T1 cells implanted in Balb/c mouse assessed as damage in endoplasmic reticulum at 200 mg/kg, TOP administration once every 2 days for 14 days; format: functional, organism-based; details: time 14.0 day
[33] = biological target: Phosphatidylinositol 4,5-bisphosphate 3-kinase catalytic subunit alpha (Homo sapiens) (UniProt P42336); assay: Binding affinity to P13Kalpha in human MDA-MB-231 cells assessed as thermal stabilization at 6.4 uM incubated for 2 hrs by CETSA based Western blotting analysis
Chain of Phosphatidylinositol 4,5-bisphosphate 3-kinase catalytic subunit alpha (Homo sapiens) (P42336 whole entry, looked up): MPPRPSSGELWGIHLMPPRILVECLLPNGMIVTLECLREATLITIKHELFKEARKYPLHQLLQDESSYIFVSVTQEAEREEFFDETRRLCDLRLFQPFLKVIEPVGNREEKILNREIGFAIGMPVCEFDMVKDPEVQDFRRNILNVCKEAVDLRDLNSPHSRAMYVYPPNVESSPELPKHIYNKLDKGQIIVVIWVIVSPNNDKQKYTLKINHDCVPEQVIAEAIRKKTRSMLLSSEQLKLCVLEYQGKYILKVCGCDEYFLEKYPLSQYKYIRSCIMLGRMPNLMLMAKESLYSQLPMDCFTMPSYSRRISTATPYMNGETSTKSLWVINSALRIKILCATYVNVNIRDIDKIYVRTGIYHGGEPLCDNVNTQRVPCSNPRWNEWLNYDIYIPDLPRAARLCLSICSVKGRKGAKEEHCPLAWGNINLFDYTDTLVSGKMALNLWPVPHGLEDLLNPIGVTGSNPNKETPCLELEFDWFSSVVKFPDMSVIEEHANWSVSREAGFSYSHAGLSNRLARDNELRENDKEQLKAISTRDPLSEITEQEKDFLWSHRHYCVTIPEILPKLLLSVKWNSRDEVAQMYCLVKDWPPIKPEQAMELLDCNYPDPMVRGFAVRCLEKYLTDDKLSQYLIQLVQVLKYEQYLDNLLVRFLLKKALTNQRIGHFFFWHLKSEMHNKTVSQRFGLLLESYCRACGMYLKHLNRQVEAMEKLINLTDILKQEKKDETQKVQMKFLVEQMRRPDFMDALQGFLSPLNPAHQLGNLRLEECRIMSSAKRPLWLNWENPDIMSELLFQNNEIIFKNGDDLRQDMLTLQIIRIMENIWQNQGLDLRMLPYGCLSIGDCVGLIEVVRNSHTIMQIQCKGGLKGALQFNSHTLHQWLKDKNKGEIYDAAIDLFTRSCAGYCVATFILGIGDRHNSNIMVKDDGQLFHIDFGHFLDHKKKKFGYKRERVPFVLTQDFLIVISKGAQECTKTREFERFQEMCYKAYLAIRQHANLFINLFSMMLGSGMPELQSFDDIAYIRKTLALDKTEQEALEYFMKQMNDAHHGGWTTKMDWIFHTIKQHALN

Cc1[nH]c2ccccc2c1C1=C(F)C(=O)C(F)=C(N2CCOCC2)C1=O
Activity [1]: Non-toxic | IC50 [2]: 3.2 µM | IC50 [3]: 3.94 µM | solubility [4]: 19 µg/mL (≈ 53 µM) | viability at 1 µM [5]: 45.1% | Activity [6]: 32.15% | Activity [7]: 63.64% | Activity [8]: Active; Compound Showed More Effect Than Mitoxantrone Treated Group | Activity [9]: Non-toxic | LD50 at 336 h [10]: 385 mg/kg | Activity [11]: Non-toxic | Activity [12]: Non-toxic | Activity [13]: Toxic | Activity [14]: 6.26 U | Activity [15]: Non-toxic | Activity [16]: Active | Activity [17]: Active | Activity [18]: 100% | Activity [19]: Non-toxic | Activity [20]: Active | Activity [21]: Toxic | Activity [22]: Active | Activity [23]: Active | Activity [24]: 41.9% | Activity [25]: Active | Activity [26]: 38.9% | Activity [27]: Active | Activity [28]: Active | Activity [29]: Active | Activity [30]: Active | Activity [31]: Active | Activity [32]: Active | Activity [33]: Active
